In general, IC50 refers to the concentration that gives 50% inhibition.

Data on two compounds can be found in US20080287398A1, “COLD MENTHOL RECEPTOR-1 ANTAGONISTS” (priority 2007, published 2008).

The structures appear in SMILES notation.

Holding throughout (assay type): cell-based
In experiment [1] the target is T1, canine TRPM8 (Canis lupus familiaris, UniProt Q1A7N1).
T1 construct: expressed in transfected cells
As to the kind of experiment: In vitro canine TRPM8 functional assay (Ca2+-sensitive dye, FLIPR/FDSS, icilin activation). The following applies: HEK293 cells expressing canine TRPM8, icilin activation; for inhibition at 0.5 µM: HEK293, 0.5 μM compound, read-out: % I (0.5 μM); for IC50: eight-point dose-response, read-out: IC50. In a few lines:
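Icilin challenge (final concentration producing ~80% of maximal response) followed a 5 min compound exposure in canine TRPM8-HEK293 cells dye-loaded with Calcium 3. Intracellular Ca2+ was read on FLIPR/FDSS. EC50 and IC50 values came from nonlinear sigmoidal dose-response fits of basal-subtracted, percent-of-maximum data averaged over quadruplicates.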

Another experiment has as its target T2, rat TRPM8 (Rattus norvegicus, UniProt Q8R455).
T2 construct: the full-length cDNAs encoding human and rat TRPM8 were subcloned; expressed in transfected cells; host or cells: HEK293 (transient, FuGENE 6, pCI-NEO vector)
As to the kind of experiment: In vitro rat TRPM8 functional assay (Ca2+ dye, FDSS, 100 nM icilin). The settings on record: HEK293 cells transiently transfected with rat TRPM8, read-out: rTRPM8 IC50. The protocol:
For functional expression of TRPM8, the full-length cDNAs encoding human and rat TRPM8 were subcloned into pCl-NEO mammalian expression vectors. The expression constructs were transiently transfected into HEK293 cells according to the FuGENE 6 transfection reagent® (ROCHE) instructions. HEK293 cells were routinely grown as monolayers in Dulbecco's minimum essential medium supplemented with 10% FBS, 1 mM L-glutamine, 100 units/mL penicillin and 100 ug/mL streptomycin. Cells were maintained in 5% CO2 at 37° C. […] Following incubation, plates were inserted into a FDSS instrument, where cells were challenged with a compound of Formula (I) (at varying concentrations) and intracellular Ca^2+ was measured for 5 min prior to the addition of 100 nM icilin. IC50 values for compounds of the present invention were determined from eight-point dose-response studies
Maximal fluorescence intensity (FI) achieved upon addition of icilin was exported from the FDSS and further analyzed using GraphPad Prism 3.02 (Graph Pad Software Inc., CA, U.S.A.). […] The dose response curves from the average of quadruplicate wells for each data point were analyzed by using nonlinear regression of either sigmoidal dose response or sigmoidal dose response (variable slope). Finally, the IC50 values were calculated with the best-fit dose curve determined by Prism.

Experiment [2] has as its target T1, canine TRPM8. As to the kind of experiment: TRPM8 patch clamp assay (whole-cell, HEK293 cells). The procedure: For patch clamp experiments, HEK293 cells stably transfected with canine TRPM8 were cultured in DMEM supplemented with 10% fetal bovine serum, 100 units/ml penicillin, 100 μg/ml streptomycin and 1 mg/ml G418. Cells were maintained at 37° C. and in 5% CO2.
The extracellular solution contained (in mM): NaCl, 132; EGTA, 1; KCl, 5.4; MgCl2, 0.8; HEPES, 10; glucose, 10; pH=7.4. Recordings were performed using the conventional whole-cell patch clamp technique, 1-2 days after plating cells onto glass coverslips at densities appropriate for single cell recording. Currents were amplified by a patch clamp amplifier and filtered at 2 kHz (Axopatch 200B, Molecular Devices, Union City, Calif.). Menthol (100 μM) was applied to the cell at 0.5 ml/min via a gravity-fed perfusion system. Recordings involving menthol activation were performed at 22° C.
In experiments where temperatures were varied, temperature ramps were generated by cooling the perfusate in an in-line cooler (Model SC-20, Warner Instruments, Hamden, Conn.) controlled by a temperature controller (Model CL-100, Warner Instruments). The temperature in the vicinity of the recorded cell was measured with a custom-made miniature thermo-microprobe connected to a monitoring thermometer (Model TH-8, Physitemp, Clifton, N.J.), and sampled using Digidata 1322A and pClamp 9.0 (Molecular Devices), as were the currents concurrently measured in the whole-cell patch clamp mode. The current was continuously sampled (at 100 Hz) at a holding potential of −60 mV.
Compounds were diluted from 10 mM DMSO stocks (stored at −20° C.) into an extracellular solution either containing 100 μM menthol or subjecting to cooling. Increasing concentrations of a compound were applied to a cell in a cumulative manner and concentration-dependent responses were measured after steady-state activation was achieved by either 100 μM menthol or cooling to 10° C. A saturating concentration of a reference antagonist was applied at the end of an experiment (either in the presence of 100 μM menthol or 10° C. temperature) to establish the baseline from which all the other measurements were subtracted.
Percentage inhibition by a compound was calculated as follows: 100×(1−Icomp/I0); where Icomp and I0 are steady-state current amplitudes in either the presence or absence of a concentration of the compound.

The mark [3] stands for this setting: IC50, mode of activation Menthol (100 μM), HEK293 cells stably transfected with canine TRPM8, 100 μM menthol, 22° C.

T1 sequence (Q1A7N1 1-1104): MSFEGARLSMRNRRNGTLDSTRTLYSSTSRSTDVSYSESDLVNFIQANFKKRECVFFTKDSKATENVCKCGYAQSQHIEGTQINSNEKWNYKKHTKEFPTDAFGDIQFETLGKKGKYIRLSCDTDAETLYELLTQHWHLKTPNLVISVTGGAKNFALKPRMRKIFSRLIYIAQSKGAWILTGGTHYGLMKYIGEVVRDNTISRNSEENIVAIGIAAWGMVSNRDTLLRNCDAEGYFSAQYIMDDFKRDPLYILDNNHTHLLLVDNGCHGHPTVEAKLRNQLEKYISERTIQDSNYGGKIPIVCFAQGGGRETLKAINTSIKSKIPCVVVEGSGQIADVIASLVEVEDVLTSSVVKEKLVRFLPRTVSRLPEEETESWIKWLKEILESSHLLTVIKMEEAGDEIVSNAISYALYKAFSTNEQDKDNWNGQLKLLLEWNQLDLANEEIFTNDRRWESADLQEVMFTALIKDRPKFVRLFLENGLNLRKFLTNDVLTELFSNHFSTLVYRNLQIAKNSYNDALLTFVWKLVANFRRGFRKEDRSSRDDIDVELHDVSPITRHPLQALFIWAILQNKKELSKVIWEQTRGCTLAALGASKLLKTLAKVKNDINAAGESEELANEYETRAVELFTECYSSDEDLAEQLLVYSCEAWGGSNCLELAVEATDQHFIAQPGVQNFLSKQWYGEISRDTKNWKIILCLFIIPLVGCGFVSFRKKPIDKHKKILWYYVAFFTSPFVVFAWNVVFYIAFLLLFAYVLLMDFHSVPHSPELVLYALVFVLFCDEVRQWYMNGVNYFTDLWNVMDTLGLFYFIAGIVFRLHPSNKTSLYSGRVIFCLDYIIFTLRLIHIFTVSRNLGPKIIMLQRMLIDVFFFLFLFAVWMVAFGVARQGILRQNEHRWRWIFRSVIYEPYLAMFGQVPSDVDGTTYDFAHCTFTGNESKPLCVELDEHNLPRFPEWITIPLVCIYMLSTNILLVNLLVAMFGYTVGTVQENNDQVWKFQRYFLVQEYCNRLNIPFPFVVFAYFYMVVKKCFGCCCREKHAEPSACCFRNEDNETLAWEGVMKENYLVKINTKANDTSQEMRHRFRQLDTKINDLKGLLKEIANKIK
T2 sequence (Q8R455 whole entry): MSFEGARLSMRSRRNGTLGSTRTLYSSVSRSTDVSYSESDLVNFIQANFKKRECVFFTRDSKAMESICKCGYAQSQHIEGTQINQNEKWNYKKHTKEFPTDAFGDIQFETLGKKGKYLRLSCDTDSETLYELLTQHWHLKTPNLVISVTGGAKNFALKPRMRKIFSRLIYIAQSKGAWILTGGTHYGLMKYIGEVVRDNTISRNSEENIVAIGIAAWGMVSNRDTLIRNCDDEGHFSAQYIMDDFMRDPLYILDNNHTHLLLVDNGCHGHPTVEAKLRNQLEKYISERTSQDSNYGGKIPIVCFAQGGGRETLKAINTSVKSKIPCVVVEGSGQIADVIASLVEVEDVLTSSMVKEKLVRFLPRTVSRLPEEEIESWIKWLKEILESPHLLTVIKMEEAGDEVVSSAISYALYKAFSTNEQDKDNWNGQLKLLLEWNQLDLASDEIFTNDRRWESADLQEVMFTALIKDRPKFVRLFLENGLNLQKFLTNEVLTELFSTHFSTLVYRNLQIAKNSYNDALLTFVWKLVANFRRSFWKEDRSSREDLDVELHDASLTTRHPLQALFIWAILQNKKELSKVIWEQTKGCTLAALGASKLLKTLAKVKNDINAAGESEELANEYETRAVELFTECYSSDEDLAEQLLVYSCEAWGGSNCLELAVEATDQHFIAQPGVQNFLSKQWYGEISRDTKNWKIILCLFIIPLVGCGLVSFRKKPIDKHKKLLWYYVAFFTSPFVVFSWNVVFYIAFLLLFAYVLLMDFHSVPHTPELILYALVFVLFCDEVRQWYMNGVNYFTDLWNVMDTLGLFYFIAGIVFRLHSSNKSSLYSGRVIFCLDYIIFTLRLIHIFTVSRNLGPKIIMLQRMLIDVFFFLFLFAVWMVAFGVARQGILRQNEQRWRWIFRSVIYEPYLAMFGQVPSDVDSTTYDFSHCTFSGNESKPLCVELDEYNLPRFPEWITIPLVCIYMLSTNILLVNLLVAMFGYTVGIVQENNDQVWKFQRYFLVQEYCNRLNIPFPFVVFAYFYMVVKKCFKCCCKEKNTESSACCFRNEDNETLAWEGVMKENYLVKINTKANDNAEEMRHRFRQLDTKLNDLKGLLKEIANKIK

As for `CC(C)OP(=O)(OC(C)C)[C@@H](Cc1ccc(F)c(F)c1)c1sc2ccccc2c1Br` [Cpd 234, (S)-[1-(3-Bromo-benzo[b]thiophen-2-yl)-2-(3,4-difluoro-phenyl)-ethyl]-phosphonic acid diisopropyl ester], the inhibition at 0.5 µM at canine TRPM8 [1] was 104%. For the same compound, the IC50 was 29 nM at canine TRPM8 [1]; 0.053 nM on rat TRPM8; 1.6 nM against canine TRPM8 [2] (IC50, mode of activation Cold (10° C.), HEK293 cells stably transfected with canine TRPM8, cooling to 10° C.); 4.7 nM against canine TRPM8 [2] (setting [3]).

With `CC(C)OP(=O)(OC(C)C)[C@@H](Cc1ccc(F)c(C(F)(F)F)c1)c1sc2ccccc2c1Br` [Cpd 242, (S)-[1-(3-Bromo-benzo[b]thiophen-2-yl)-2-(4-fluoro-3-trifluoromethyl-phenyl)-ethyl]-phosphonic acid diisopropyl ester], the inhibition at 0.5 µM at canine TRPM8 [1] worked out at 103%. Moreover, the IC50 on canine TRPM8 [1] stood at 9 nM; at rat TRPM8 it was 0.056 nM; against canine TRPM8 [2] (setting [3]), 0.4 nM.
